Where two headings read alike, the source gives them in different places.

Holding throughout (experiment): biochemical
What all share (parameters): Eurofins KinaseProfiler full panel at Km ATP, residual kinase activity (%) relative to DMSO

One assay deals with T1, PKCγ(h) (Homo sapiens, UniProt P05129).
T1 construct: gene PRKCG
In outline: (§1)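 Radiometric kinase activity assays were run with ATP at Km and compounds at 10 µM, and remaining activity (%) was reported. A separate competitive binding screen measured DNA-tagged kinase displaced from immobilized active-site ligands by qPCR, giving percent kinase still bound at 10 µM compound in DMSO.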

For a further assay, the target named is T2, PDGFRα(h) (Homo sapiens, UniProt P16234).
T2 construct: gene PDGFRA
The gist of the method: as §1

A further assay has as its target DDR1(h) (Homo sapiens, UniProt Q08345). The gist of the method:
as §1

The next assay deals with T3, PKAcβ(h) (Homo sapiens, UniProt P22694).
T3 construct: gene PRKACB
In outline: as §1

A further assay deals with T4, JNK3(h) (Homo sapiens, UniProt P53779).
T4 construct: gene MAPK10
The gist of the method:
as §1

The next assay concerns the target T5, DMPK(h) (Homo sapiens, UniProt Q09013).
T5 sequence (Q09013 1-629): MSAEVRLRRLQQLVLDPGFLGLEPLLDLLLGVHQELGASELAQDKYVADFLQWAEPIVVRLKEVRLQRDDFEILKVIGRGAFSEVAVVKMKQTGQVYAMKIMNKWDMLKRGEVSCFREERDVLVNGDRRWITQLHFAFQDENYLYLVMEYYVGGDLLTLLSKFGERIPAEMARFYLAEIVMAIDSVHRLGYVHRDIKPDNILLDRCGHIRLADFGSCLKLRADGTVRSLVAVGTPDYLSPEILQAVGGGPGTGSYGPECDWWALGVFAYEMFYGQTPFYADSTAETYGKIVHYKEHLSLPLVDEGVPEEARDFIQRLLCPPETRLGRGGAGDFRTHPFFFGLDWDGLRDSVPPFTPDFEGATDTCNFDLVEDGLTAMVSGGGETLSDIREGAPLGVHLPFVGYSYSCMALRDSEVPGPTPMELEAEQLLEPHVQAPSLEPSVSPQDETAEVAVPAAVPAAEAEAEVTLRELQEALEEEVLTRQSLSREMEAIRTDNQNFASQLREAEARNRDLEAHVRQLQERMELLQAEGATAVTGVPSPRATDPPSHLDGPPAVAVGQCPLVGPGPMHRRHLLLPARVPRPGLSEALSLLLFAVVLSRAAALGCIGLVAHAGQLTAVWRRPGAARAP
In outline: as §1

For a further assay, the target named is T6, Arg(m) (Mus musculus, UniProt Q4JIM5).
T6 construct: gene Abl2
The gist of the method: as §1

In another assay the target is Plk1(h) (Homo sapiens, UniProt P53350). In outline: as §1
For the next assay, the target named is T7, Fms(h) (Homo sapiens, UniProt P07333).
T7 construct: gene CSF1R
The gist of the method:
as §1

In a further assay the target is T8, ARK5(h) (Homo sapiens, UniProt O60285).
T8 construct: gene NUAK1
T8 sequence (O60285 1-661): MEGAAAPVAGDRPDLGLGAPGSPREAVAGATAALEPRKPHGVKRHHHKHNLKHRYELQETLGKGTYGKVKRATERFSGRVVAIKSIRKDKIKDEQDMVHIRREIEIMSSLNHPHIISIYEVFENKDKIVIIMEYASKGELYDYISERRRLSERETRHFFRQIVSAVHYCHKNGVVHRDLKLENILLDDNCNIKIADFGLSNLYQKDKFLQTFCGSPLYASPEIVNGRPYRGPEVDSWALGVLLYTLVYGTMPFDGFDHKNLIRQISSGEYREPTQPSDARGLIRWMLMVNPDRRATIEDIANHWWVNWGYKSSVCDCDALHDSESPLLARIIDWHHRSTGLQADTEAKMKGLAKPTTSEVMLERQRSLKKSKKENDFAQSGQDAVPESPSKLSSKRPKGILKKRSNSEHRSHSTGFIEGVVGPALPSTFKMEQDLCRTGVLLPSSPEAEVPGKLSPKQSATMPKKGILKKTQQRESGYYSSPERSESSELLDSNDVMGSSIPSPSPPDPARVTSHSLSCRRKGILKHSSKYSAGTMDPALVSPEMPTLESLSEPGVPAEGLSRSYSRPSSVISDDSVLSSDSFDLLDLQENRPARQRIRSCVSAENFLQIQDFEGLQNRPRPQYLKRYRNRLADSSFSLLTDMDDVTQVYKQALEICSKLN
The gist of the method: as §1

The target of the next assay is T9, IR(h) (Homo sapiens, UniProt P06213).
T9 construct: gene INSR
In outline:
as §1

The mark [1] stands for this setting: read-out: Residual activity (%) 5at.
The mark [2] stands for this setting: read-out: Residual activity (%) 5ay.
[3] abbreviates: read-out: Residual activity (%) 5as.
[4] abbreviates: read-out: Residual activity (%) Spautin-1 5aa.

T4 sequence (P53779 whole entry): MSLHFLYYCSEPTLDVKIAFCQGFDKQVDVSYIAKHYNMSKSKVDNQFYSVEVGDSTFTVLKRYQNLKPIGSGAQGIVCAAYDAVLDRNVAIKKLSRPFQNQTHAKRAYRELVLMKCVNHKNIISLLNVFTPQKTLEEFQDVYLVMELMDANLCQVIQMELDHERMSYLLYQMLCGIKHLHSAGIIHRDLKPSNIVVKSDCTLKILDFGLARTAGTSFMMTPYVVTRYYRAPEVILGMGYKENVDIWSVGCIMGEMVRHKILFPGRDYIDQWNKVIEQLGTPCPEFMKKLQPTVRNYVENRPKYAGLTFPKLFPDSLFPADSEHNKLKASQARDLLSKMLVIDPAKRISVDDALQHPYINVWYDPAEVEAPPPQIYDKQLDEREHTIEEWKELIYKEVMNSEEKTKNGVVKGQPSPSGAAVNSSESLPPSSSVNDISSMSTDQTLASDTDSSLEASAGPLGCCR
Chain of DDR1(h) (Q08345 whole entry): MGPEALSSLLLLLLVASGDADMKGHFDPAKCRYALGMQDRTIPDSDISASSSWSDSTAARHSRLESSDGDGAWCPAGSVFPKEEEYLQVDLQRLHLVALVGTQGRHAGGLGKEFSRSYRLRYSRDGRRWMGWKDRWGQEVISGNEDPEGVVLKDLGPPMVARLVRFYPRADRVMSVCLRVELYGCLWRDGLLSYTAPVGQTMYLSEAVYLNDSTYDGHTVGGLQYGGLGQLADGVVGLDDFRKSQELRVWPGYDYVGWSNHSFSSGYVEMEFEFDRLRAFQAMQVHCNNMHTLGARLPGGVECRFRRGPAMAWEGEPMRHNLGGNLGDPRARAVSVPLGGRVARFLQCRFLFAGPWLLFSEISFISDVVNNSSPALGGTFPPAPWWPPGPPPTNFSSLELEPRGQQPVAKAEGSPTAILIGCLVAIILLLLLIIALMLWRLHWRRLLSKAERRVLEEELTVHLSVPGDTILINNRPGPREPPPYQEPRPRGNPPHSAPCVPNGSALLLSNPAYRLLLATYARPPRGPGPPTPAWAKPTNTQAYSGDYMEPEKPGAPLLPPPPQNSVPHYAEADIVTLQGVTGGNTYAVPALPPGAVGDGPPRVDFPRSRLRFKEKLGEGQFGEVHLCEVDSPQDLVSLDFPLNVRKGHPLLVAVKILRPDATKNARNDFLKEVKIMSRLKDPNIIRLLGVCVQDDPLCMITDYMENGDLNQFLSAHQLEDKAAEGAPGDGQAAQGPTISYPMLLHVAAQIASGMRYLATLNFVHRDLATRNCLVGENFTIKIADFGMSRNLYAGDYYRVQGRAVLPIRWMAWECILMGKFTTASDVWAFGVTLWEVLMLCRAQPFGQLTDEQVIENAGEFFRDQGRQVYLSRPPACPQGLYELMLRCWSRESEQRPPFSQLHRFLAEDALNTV
T6 sequence (Q4JIM5 whole entry): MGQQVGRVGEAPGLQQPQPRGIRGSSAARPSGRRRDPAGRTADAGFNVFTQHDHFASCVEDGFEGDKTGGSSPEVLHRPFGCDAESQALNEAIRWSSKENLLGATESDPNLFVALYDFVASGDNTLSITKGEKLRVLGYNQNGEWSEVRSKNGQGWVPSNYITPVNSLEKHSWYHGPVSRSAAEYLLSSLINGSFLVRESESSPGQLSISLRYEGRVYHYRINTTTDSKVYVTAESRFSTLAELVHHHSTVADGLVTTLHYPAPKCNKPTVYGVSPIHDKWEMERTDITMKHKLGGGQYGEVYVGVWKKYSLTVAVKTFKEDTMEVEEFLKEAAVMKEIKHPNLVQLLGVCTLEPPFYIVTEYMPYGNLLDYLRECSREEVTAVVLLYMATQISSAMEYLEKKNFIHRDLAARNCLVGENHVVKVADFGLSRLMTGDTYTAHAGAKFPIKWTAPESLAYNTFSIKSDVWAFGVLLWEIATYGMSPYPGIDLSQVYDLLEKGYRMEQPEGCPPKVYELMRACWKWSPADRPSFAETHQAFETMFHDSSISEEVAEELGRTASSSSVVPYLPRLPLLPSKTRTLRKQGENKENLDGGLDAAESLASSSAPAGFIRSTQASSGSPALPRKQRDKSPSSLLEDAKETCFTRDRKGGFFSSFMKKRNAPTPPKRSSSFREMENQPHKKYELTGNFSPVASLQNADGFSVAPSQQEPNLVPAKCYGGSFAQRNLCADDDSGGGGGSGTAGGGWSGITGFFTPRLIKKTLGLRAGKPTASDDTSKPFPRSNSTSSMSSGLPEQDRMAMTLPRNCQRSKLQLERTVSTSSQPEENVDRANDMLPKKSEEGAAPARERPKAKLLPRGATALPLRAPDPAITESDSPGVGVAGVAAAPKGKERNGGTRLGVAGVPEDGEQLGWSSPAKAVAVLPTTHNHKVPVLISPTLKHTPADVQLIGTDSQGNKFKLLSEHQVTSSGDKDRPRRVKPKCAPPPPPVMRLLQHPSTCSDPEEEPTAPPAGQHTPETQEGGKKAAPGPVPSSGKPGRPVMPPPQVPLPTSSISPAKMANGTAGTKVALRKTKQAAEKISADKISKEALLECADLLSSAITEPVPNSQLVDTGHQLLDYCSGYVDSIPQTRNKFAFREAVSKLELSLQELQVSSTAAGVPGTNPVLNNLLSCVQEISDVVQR
T2 sequence (P16234 whole entry): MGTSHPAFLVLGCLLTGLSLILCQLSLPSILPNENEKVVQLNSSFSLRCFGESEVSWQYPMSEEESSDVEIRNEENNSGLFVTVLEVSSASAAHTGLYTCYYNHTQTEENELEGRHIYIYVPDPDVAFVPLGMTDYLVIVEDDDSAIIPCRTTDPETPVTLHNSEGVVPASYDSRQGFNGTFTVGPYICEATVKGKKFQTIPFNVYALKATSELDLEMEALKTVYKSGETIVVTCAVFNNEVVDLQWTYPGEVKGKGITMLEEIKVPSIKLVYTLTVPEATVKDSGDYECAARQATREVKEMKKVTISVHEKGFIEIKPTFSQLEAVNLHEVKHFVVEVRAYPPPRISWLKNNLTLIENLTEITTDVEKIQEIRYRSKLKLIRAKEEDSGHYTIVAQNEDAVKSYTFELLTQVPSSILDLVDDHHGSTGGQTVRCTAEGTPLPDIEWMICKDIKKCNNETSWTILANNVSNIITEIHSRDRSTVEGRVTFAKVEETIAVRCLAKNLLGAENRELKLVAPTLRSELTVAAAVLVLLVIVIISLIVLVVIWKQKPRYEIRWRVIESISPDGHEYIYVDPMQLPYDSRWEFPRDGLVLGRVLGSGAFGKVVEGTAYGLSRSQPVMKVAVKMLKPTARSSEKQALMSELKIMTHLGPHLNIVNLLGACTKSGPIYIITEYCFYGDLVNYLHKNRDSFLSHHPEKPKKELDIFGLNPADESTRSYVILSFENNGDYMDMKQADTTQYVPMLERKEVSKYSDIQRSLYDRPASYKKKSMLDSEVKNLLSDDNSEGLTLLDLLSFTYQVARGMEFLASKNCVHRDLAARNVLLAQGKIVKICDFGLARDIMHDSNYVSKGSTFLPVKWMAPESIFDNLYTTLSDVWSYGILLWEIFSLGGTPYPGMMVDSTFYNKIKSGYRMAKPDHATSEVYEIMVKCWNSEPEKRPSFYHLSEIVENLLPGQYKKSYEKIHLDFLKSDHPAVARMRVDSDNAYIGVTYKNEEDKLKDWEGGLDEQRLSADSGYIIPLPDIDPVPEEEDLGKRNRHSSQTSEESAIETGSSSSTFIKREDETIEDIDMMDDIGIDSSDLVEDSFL
Chain of Plk1(h) (P53350 whole entry): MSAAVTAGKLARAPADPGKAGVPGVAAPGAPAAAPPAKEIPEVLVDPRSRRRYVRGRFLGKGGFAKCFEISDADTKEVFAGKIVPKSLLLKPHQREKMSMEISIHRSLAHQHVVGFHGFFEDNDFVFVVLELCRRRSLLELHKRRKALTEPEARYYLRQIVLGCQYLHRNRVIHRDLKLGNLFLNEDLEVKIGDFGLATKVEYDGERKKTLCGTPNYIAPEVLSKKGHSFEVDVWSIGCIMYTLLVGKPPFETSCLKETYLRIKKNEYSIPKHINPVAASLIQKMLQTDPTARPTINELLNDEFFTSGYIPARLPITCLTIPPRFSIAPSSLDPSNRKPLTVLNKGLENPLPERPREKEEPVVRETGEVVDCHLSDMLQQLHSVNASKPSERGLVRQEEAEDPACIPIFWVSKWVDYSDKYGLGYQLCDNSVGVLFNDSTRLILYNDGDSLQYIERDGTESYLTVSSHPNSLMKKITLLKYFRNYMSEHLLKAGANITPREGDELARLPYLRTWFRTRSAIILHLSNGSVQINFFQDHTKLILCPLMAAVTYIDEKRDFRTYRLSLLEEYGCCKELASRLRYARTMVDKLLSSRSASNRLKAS

Take `Fc1ccc2ncnc(NCCc3ccc(Cl)cc3)c2c1` [5at, N-[2-(4-Chlorophenyl)Ethyl]-6-Fluoro-4-Quinazolinamine]: the remaining activity at 10 µM on PKCγ(h) (setting [1]) is 72%; on PDGFRα(h) (setting [1]) it was 95%; on DDR1(h) (setting [1]), 39%; at PKAcβ(h) (setting [1]), 107%; at JNK3(h) (setting [1]), 107%; at DMPK(h) (setting [1]) it was 80%. Moreover, the remaining activity at 10 µM on Arg(m) (setting [1]) came to 98%; on Plk1(h) (setting [1]), 92%; at Fms(h) (setting [1]), 64%; at ARK5(h) (setting [1]), 105%; on IR(h) (setting [1]), 70%.
On to `COc1ccc2ncnc(Nc3cccc(F)c3)c2c1` [5ay, N-(3-Fluorophenyl)-6-Methoxy-4-Quinazolinamine], for which the remaining activity at 10 µM at PKCγ(h) (setting [2]) came out at 81%; at PDGFRα(h) (setting [2]) it was 101%; at DDR1(h) (setting [2]) it was 7%; on PKAcβ(h) (setting [2]), 85%; at JNK3(h) (setting [2]) it was 90%; at DMPK(h) (setting [2]) it was 99%. For the same compound, the remaining activity at 10 µM at Arg(m) (setting [2]) came out at 83%; on Plk1(h) (setting [2]), 96%; at Fms(h) (setting [2]), 90%; at ARK5(h) (setting [2]), 93%; on IR(h) (setting [2]), 98%.
With `Fc1ccc(CCNc2ncnc3ccc(F)cc23)cc1` [5as, 6-Fluoro-N-[2-(4-Fluorophenyl)Ethyl]-4-Quinazolinamine], the remaining activity at 10 µM at PKCγ(h) (setting [3]) is 74%; at PDGFRα(h) (setting [3]) it was 90%; at DDR1(h) (setting [3]) it was 29%; on PKAcβ(h) (setting [3]) it was 97%; at JNK3(h) (setting [3]), 98%; at DMPK(h) (setting [3]) it was 90%. Also, the remaining activity at 10 µM on Arg(m) (setting [3]) worked out at 105%; at Plk1(h) (setting [3]) it was 96%; at Fms(h) (setting [3]) it was 72%; at ARK5(h) (setting [3]), 101%; at IR(h) (setting [3]), 88%.
For the compound `Fc1ccc(CNc2ncnc3ccc(F)cc23)cc1` [5aa, 6-Fluoro-N-(4-fluorobenzyl)-4-Quinazolinamine], the remaining activity at 10 µM was 86% on PKCγ(h) (setting [4]); 111% on PDGFRα(h) (setting [4]); 65% on DDR1(h) (setting [4]); 87% at PKAcβ(h) (setting [4]); 90% on JNK3(h) (setting [4]); 79% at DMPK(h) (setting [4]). Moreover, the remaining activity at 10 µM on Arg(m) (setting [4]) came out at 91%; at Plk1(h) (setting [4]) it was 93%; on Fms(h) (setting [4]) it was 94%; at ARK5(h) (setting [4]) it was 99%; on IR(h) (setting [4]), 73%.

These data come from PMC7827406, “Structure–Activity Relationship (SAR) Study of Spautin-1 to Entail the Discovery of Novel NEK4 Inhibitors” (International Journal of Molecular Sciences, 2021).
